Assays:
[1] = 101 kPa, Liquid
[2] = xn = mol fraction of the nth substance listed; settings: 101 kPa, Liquid, x2 = 0

OCCOCCO [diethylene glycol]
[1]
Settings	mass density [kg/m3]	viscosity [mPa·s]
283.15 K	1124.24	–
288.15 K	1120.65	–
293.15 K	1117.05	36.43
298.15 K	1113.47	–
303.15 K	1109.88	22.09
308.15 K	1106.29	–
313.15 K	1102.7	14.56
318.15 K	1099.11	–
323.15 K	1095.51	10.03
328.15 K	1091.91	–
333.15 K	1088.3	7.22
338.15 K	1084.68	–
343.15 K	1081.05	5.369
348.15 K	1077.4	–
353.15 K	1073.74	4.139

O [water] + OCCOCCO
[2]
Settings	mass density [kg/m3]	viscosity [mPa·s]
283.15 K	999.7	–
293.15 K	–	1.013
303.15 K	995.55	0.811
313.15 K	–	0.667
323.15 K	988.03	0.561
328.15 K	985.69	–
333.15 K	983.19	0.477
338.15 K	980.55	–
343.15 K	977.76	0.413
348.15 K	974.84	–
353.15 K	971.79	0.362
